Results reported in US20230406840A1, “N-(2-(3-CYANO-2-AZABICYCLO[3.1.0]HEXAN-2-YL)-2-OXOETHYL)QUINOLINE-4-CARBOXAMIDES” (AstraZeneca AB, priority 2022, published 2023).
Values after ≈ are worked out from the molar mass of the structure shown.

What was measured:
[1] = Metabolic stability in human liver microsomes (HLM); assay type: in vitro ADME
Method: Metabolic stability in HLM was measured as described in J Comput Aided Mol Des 2015, 29, 795.

Rat Hepatocytes (rHep) = assay: Metabolic stability in rat hepatocytes (rHep); assay type: in vitro ADME
Method: Metabolic stability in rat hepatocytes was measured as described in J Comput Aided Mol Des 2015, 29, 795.

Kinetic solubility = assay type: physicochemical; settings: kinetic from dmso stock
Method: Kinetic solubility was measured as described in Comput Aided Mol Des 2015, 29, 795.

Human Hepatocytes (hHep) = assay: Metabolic stability in human hepatocytes (hHep); assay type: in vitro ADME
Method: Metabolic stability in human hepatocytes was measured as described in Xenobiotica 2010, 40, 637.

[2] = target: Prolyl Oligopeptidase (hPREP) (Homo sapiens (Human), UniProt P48147); assay: hPREP inhibition assay; assay type: biochemical; settings: hPREP 0.6 nM, Z-Gly-Pro-amino-methylcoumarin 50 μM; read-out: PREP IC50
Method: Compounds were tested in a biochemical inhibition assay using Prolyl endopeptidase, Prolyl Oligopeptidase (hPREP) enzyme at 0.6 nM FAC (R&D Systems, 4308-SE) and the substrate Z-Gly-Pro-amino-methylcoumarin (Bachem, I-1145) at 50 μM FAC. 384 Low volume black plates (Greiner #784076) were used. […] 4 μL, 100 μM substrate solution (25 mM Tris HCl, 250 mM NaCl, 0.01% Triton X-100, 5 mM Glutathione, pH 7.5) was added to each well. Plates were centrifuged at 1000 rpm and incubated for 20 min at rt in dark. […] Data were analyzed in Genedata Screener®.

hFAP = hFAP (Homo sapiens (Human), UniProt Q12884);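 note: fluorescence read after incubating enzyme with substrate at room temperature, IC50 fitted from percent inhibition against log concentration with a one-site model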
Method: Compounds were tested in a biochemical inhibition assay using hFAP enzyme at 0.24 nM FAC (Proteros, 38-760 (PR-0071)) and the substrate Ala-Pro-AMC (ARI-3144) at 20 μM FAC. 384 low volume black plates (Greiner #784076) were used. 4 μL, 0.48 nM enzyme solution (100 mM Tris HCl, 100 mM NaCl, 0.05% Chaps, pH 7.4) was added to 40 nL compounds (in DMSO) at 10 CR, 3-fold dilution series from 50 μM FAC. Plates were incubated for 15 min at rt in dark. 4 μL, 40 μM substrate solution (100 mM Tris HCl, 100 mM NaCl, 0.05% Chaps, pH 7.4) was added to each well. Plates were centrifuged at 1000 rpm and incubated for 30 min at rt in dark. The plates were read on a PHERAstar® reader with excitation 340 nm and emission 460 nm. Data were analyzed in Genedata Screener®. IC50 values were determined by plotting % inhibition versus log compound concentration and using a one site dose response model.

FAP Mouse Plasma = FAP Mouse Plasma (Mus musculus (Mouse), UniProt P97321); assay: FAP plasma inhibition assay, mouse plasma; assay type: biochemical; settings: mouse plasma dilution 1:67, Ala-Pro-AMC 75 μM; n = 1
Method: (§1) This assay was adapted from the method described in Example 53 for detection of FAP target engagement enzyme activity in plasma. Plasma (anticoagulant K2EDTA) was used as the enzyme source: Human plasma (Pooled from AZ Biobank) and Mouse plasma (AZ AST Biobank). 384-Well black fluotrack PS plates (Greiner 781076) were used. 20 μL diluted plasma (Human plasma dilution 1:40, Mouse plasma dilution 1:67) in buffer (PBS, 0.1% BSA) was added to 0.6 μL compounds (in DMSO). Compounds were tested using 10 CR, 3-fold dilution series from 500 nM FAC. Two replicates for each assay point were run on the same plate. A fluorescence blank read was taken before substrate addition. Substrate, Ala-Pro-AMC (ARI-3144) stock solution (20 mM in DMSO) was diluted in buffer (PBS, 0.1% BSA) to 150 μM concentration and 20 μL added giving 75 μM FAC. Plates were incubated for 40 min at rt in the dark. The plates were read on a Beckman Paradigm® reader with excitation 360 nm and emission 465 nm. Data were analyzed in Excel (IDBS XLfit Add-In) using a one site dose response model (4-parameter logistic fit). […] Raw data signals were normalized using 1.5% DMSO in diluted plasma as 0% control and 1.5% DMSO in buffer (no plasma) as 100% inhibitor control.

FAP Human Plasma = FAP Human Plasma (Homo sapiens (Human), UniProt Q12884); assay: FAP plasma inhibition assay, human plasma; assay type: biochemical; settings: human plasma dilution 1:40, Ala-Pro-AMC 75 μM; n = 1
Method: as §1

[3] = target: human Fibroblast activation protein alpha (hFAP) (Homo sapiens (Human), UniProt Q12884); assay: hFAP inhibition assay (tight binders); assay type: biochemical; settings: tight-binder format, Ala-Pro-AMC 20 μM, 2.5 h incubation; n = 1 or geometric mean (n = 5-10)
Method: Data were analyzed in Genedata Screener®.

[4] = Caco-2 AB intrinsic permeability; assay type: in vitro ADME; settings: human, A to B, read-out: Caco2 AB Intrinsic Papp
Method: (§2) Caco-2 cell permeability was measured as described in Mol/Pharm 2017, 14, 1601.

[5] = Caco-2 bidirectional (ABBA) permeability; assay type: in vitro ADME; settings: human
Method: as §2

hFAP (M39-A757) = hFAP (M39-A757) (Homo sapiens (Human), UniProt Q12884)
Sequence of hFAP (M39-A757) (Q12884 39-757): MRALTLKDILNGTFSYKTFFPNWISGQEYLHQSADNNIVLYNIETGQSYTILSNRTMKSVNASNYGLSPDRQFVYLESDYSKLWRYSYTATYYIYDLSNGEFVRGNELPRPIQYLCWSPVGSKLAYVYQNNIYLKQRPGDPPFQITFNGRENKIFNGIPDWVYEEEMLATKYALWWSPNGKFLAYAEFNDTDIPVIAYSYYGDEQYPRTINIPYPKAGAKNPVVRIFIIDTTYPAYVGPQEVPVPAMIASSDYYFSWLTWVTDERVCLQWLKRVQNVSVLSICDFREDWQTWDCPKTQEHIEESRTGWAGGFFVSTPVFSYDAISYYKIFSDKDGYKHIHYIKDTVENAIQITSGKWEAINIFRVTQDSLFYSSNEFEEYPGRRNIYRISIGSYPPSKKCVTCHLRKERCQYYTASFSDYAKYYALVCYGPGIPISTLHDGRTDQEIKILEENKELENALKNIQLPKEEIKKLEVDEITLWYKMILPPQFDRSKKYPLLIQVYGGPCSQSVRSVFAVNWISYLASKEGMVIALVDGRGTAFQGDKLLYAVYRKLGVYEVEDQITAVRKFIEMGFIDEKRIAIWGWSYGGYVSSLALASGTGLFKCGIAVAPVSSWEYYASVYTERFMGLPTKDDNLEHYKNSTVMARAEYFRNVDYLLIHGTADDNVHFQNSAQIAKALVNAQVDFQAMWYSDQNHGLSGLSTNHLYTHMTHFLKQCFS
Method: Compounds were tested in a direct binding assay using 8K surface plasmon resonance biosensor (GE Healthcare) at 20° C. Immobilization of hFAP (M39-A757) on a CMD200M sensor chip (Xantec) was performed using standard amine coupling procedure in immobilization buffer (10 mM HEPES, 150 mM NaCl, 0.05% Tween20, pH 7.4). The surface was washed with 10 mM NaOH, 1M NaCl before being activated with EDC/NHS (GE Healthcare), followed by immobilization of hFAP (in 10 mM Acetate pH 5.0). Finally, the surface was deactivated by ethanolamine. Immobilization levels of hFAP were around 4000-6000 RU. The reference spot was treated as described, omitting the injection of hFAP. Compound concentration series were injected over the immobilized protein in increasing concentrations (2-500 nM) using single cycle kinetics in running buffer (20 mM TRIS, 150 mM NaCl, 0.05% Tween20, 1% DMSO, pH 7.4). Interaction models were fitted globally to the experimental traces, enabling determination of kon, koff and Kd.

Sequence of Prolyl Oligopeptidase (hPREP) (P48147 whole entry): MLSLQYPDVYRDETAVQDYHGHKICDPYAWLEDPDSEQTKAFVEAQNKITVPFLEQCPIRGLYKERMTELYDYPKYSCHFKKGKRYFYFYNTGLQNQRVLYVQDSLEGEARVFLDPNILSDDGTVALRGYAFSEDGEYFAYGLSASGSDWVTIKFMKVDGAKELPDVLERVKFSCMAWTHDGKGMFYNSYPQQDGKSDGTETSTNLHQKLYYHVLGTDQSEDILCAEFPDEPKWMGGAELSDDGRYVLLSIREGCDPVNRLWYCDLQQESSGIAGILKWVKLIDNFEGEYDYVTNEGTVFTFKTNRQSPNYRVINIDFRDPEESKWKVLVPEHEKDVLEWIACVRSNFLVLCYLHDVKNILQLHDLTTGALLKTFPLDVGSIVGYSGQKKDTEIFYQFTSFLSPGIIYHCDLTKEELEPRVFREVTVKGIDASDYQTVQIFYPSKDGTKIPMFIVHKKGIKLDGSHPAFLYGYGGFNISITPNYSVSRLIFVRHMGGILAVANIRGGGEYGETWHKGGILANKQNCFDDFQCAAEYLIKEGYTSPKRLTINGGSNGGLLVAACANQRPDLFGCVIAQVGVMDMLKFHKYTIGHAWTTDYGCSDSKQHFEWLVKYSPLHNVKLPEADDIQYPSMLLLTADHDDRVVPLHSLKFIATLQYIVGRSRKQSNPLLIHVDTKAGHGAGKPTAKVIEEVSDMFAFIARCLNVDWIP
Sequence of FAP Mouse Plasma (P97321 24-761 limits assumed): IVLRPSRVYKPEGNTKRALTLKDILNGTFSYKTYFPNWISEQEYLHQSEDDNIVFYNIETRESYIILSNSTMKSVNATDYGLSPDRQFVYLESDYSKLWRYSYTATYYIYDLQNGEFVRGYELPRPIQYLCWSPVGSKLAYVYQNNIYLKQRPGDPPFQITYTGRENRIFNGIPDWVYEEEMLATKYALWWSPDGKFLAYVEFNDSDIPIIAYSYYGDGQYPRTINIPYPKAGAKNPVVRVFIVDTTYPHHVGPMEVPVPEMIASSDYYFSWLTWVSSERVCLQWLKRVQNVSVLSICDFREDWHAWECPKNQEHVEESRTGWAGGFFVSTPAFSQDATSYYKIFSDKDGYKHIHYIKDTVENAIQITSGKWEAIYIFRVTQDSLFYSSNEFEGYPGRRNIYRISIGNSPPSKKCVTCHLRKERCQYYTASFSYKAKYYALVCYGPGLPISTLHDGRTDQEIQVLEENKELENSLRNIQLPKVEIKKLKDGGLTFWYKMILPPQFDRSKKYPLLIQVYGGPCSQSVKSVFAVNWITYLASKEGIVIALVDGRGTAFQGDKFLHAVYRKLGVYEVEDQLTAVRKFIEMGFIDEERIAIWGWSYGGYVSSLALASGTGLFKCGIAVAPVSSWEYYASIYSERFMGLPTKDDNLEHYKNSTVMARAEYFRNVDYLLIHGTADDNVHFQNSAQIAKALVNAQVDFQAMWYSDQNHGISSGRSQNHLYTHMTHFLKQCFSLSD
Sequence of FAP Human Plasma (Q12884 24-760 limits assumed): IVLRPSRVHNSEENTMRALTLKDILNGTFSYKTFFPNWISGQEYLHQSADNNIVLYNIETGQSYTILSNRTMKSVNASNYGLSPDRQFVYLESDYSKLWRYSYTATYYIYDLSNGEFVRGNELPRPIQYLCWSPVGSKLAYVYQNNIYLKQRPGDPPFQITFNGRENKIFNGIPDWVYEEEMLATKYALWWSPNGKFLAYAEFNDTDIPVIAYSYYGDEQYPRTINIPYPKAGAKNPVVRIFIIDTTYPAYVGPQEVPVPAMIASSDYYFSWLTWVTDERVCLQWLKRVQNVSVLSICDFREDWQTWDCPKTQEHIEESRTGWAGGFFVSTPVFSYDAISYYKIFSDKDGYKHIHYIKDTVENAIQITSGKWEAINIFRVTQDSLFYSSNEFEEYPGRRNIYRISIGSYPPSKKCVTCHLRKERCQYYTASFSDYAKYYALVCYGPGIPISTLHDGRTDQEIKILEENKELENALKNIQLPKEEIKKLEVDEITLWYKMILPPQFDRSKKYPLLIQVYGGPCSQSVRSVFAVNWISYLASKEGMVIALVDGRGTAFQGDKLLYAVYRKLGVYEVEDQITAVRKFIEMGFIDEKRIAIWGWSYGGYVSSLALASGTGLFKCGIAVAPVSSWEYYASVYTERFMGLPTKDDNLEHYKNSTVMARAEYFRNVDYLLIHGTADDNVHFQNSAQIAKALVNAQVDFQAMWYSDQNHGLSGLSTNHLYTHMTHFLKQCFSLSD
Sequence of human Fibroblast activation protein alpha (hFAP) (Q12884 38-760): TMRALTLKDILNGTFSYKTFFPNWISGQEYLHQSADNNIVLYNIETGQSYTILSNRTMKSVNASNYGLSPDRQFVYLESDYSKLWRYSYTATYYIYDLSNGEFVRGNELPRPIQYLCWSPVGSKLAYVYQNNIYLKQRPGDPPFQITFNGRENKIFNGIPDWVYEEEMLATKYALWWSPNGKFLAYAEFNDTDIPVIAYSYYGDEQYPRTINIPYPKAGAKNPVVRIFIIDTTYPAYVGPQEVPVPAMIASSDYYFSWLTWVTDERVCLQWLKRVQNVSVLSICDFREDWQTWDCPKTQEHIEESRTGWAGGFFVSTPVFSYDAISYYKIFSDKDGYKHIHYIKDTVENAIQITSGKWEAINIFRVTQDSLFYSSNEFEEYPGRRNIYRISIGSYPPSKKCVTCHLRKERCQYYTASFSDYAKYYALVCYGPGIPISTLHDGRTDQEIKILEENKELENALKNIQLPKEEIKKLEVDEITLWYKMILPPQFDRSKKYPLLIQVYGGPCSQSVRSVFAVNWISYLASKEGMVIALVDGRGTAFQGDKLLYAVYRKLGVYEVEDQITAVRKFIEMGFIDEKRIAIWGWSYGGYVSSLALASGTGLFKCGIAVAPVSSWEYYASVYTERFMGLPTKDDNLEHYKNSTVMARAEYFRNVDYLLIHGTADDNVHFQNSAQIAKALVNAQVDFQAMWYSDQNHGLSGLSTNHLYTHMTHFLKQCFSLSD
Sequence of hFAP (Q12884 38-760): as above

microsomal CLint [1] [µL/min/mg] | rHeps CLint (Rat Hepatocytes (rHep)) [μL/min/1E6] | solubility (Kinetic solubility) [µM] | hHep CLint (Human Hepatocytes (hHep)) [μL/min/1E6] | IC50 [2] [µM] | IC50 (hFAP) [µM] | IC50 (FAP Mouse Plasma) [µM] | IC50 (FAP Human Plasma) [µM] | IC50 [3] [µM] | Papp [4] [×10⁻⁶ cm/s] | Papp A→B ([5]; A to B, read-out: Caco2 Bidirectional (ABBA) A to B Papp) [×10⁻⁶ cm/s] | Papp B→A ([5]; B to A, read-out: Caco2 Bidirectional (ABBA) B to A Papp) [×10⁻⁶ cm/s] | efflux ratio ([5]; read-out: Caco2 Bidirectional (ABBA) Efflux Ratio) | Kd (hFAP (M39-A757)) [µM] | SMILES
9.7 | 3.8 | 290 (≈ 116 µg/mL) | 2.8 | 27 | 0.002 | 0.02 | 0.023 | 0.00044 |  |  |  |  |  | N#C[C@@H]1C[C@@H]2C[C@@H]2N1C(=O)CNC(=O)c1ccnc2ccc(Br)cc12 [Example 1, 6-Bromo-N-(2-((1S,3S,5S)-3-cyano-2-azabicyclo[3.1.0]hexan-2-yl)-2-oxoethyl)quinoline-4-carboxamide]
< 3 | 4.5 | 210 (≈ 83.8 µg/mL) | <1 | > 50 | 0.00068 | 0.015 | 0.015 | 0.00012 |  |  |  |  |  | N#C[C@@H]1C[C@@H]2C[C@@H]2N1C(=O)CNC(=O)c1ccnc2cc(Br)ccc12 [Example 3, 7-Bromo-N-(2-((1S,3S,5S)-3-cyano-2-azabicyclo[3.1.0]hexan-2-yl)-2-oxoethyl)quinoline-4-carboxamide]
 |  |  |  | > 50 | < 0.0028 | 0.0027 | 0.0075 | 0.00056 |  |  |  |  |  | Cc1ccc2nccc(C(=O)NCC(=O)N3[C@H](C#N)C[C@@H]4C[C@@H]43)c2c1 [Example 9, N-(2-((1S,3S,5S)-3-Cyano-2-azabicyclo[3.1.0]hexan-2-yl)-2-oxoethyl)-6-methylquinoline-4-carboxamide]
37 | 6.7 | 140 (≈ 54.4 µg/mL) | 7 | > 50 | 0.0048 | 0.015 | 0.034 |  |  |  |  |  |  | N#C[C@@H]1C[C@@H]2C[C@@H]2N1C(=O)CNC(=O)c1ccnc2ccc(C(F)(F)F)cc12 [Example 10, N-(2-((1S,3S,5S)-3-Cyano-2-azabicyclo[3.1.0]hexan-2-yl)-2-oxoethyl)-6-(trifluoromethyl)quinoline-4-carboxamide]
6.2 | 1.6 | > 1000 | <1 | 38 | 0.031 |  | 0.32 | 0.011 | 56 |  |  |  |  | Cc1ccc2c(C(=O)NCC(=O)N3[C@H](C#N)C[C@@H]4C[C@@H]43)cc(C)nc2c1 [Example 31, N-(2-((1S,3S,5S)-3-Cyano-2-azabicyclo[3.1.0]hexan-2-yl)-2-oxoethyl)-2,7-dimethylquinoline-4-carboxamide]
8.4 | 49 | 810 (≈ 292 µg/mL) | 2.3 | > 50 | < 0.0017 | 0.0024 | 0.0055 | 0.0003 | 29 | 18 | 33 | 1.8 |  | N#C[C@@H]1C[C@@H]2C[C@@H]2N1C(=O)CNC(=O)c1ccnc2cc(C3CC3)ccc12 [Example 37, N-(2-((1S,3S,5S)-3-Cyano-2-azabicyclo[3.1.0]hexan-2-yl)-2-oxoethyl)-7-cyclopropylquinoline-4-carboxamide]
< 3 | <1 | 120 (≈ 43.7 µg/mL) | <1 |  | 0.038 | 0.3 | 0.38 |  |  |  |  |  |  | COc1ccc2c(C(=O)NCC(=O)N3[C@H](C#N)C[C@@H]4C[C@@H]43)cc(C)nc2c1 [Example 41, N-(2-((1S,3S,5S)-3-Cyano-2-azabicyclo[3.1.0]hexan-2-yl)-2-oxoethyl)-7-methoxy-2-methylquinoline-4-carboxamide]
> 300 | 150 | 510 (≈ 218 µg/mL) |  | > 50 | 0.0046 |  |  | 0.0011 |  |  |  |  | 0.012 | N#C[C@@H]1C[C@@H]2C[C@@H]2N1C(=O)CNC(=O)c1ccnc2ccc(C3(C(F)(F)F)CC3)cc12 [Example 44, N-(2-((1S,3S,5S)-3-Cyano-2-azabicyclo[3.1.0]hexan-2-yl)-2-oxoethyl)-6-(1-(trifluoromethyl)cyclopropyl)quinoline-4-carboxamide]
120 | 40 | > 1000 |  | > 50 | 0.00076 |  |  | 0.00025 |  |  |  |  | 0.0073 | CCOC1(c2ccc3nccc(C(=O)NCC(=O)N4[C@H](C#N)C[C@@H]5C[C@@H]54)c3c2)CC1 [Example 45, N-(2-((1S,3S,5S)-3-Cyano-2-azabicyclo[3.1.0]hexan-2-yl)-2-oxoethyl)-6-(1-ethoxycyclopropyl)quinoline-4-carboxamide]
20 | 6.6 | 110 (≈ 42.4 µg/mL) | <1 | > 50 | 0.0017 |  |  | 0.00018 |  |  |  |  | 0.025 | N#C[C@@H]1C[C@@H]2C[C@@H]2N1C(=O)CNC(=O)c1ccnc2ccc(C3(C#N)CC3)cc12 [Example 46, N-(2-((1S,3S,5S)-3-Cyano-2-azabicyclo[3.1.0]hexan-2-yl)-2-oxoethyl)-6-(1-cyanocyclopropyl)quinoline-4-carboxamide]
